Experimental data: US20230271949A1, “GLP-1R MODULATING COMPOUNDS” (ASCLETIS BIOSCIENCE CO., LTD., priority 2022, published 2023)

How the values were obtained:
GLP-1R [1] = molecular target: T1, GLP-1R (Homo sapiens, UniProt P43220); test: GLP-1R agonist cAMP stimulation assay (HTRF cAMP); assay type: cell-based; conditions: HEK293 cell line expressing GLP-1 target; HTRF cAMP agonist mode, 30 min at RT
Procedure, shortened: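 GLP-1R-expressing cells were stimulated with 10-point, 3-fold compound dilutions for 30 min at RT; HTRF cAMP detection reagents were then added for 60 min and the 665/615 ratio read. Ratios were converted to cAMP via a standard curve and % activity scaled between DMSO and top-concentration GLP-1(7-37) reference wells.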

GLP-1R [2] = molecular target: T1, GLP-1R; test: Tag-lite binding assay (competition with GLP-1 receptors red agonist); conditions: for IC50: HEK293 GLP-1 cells labeled with SNAP-Lumi4-Tb, red agonist 4.917 nM, 23° C., 2 h; for Ki: calculated from sample IC50 and red agonist Kd
Protocol: B. Tag-Lite Binding Assay
The cell line was constructed by WuXi.
10) Dispense cells into cell plate (1.8 M cells/well in 2 ml medium of 6-well plate, total 4 wells).
Second Day: Tag-Lite Binding Assay
3) The cell culture medium is removed from the 6-well plate and then 1 mL of Tag-lite SNAP-Lumi4-Tb diluted in Tag-lite labeling medium are added gently on the cells.
7) The testing compounds and reference compound are serially diluted with 3-fold, 10 points using Echo, then transfer 100 nL compounds to the assay plate.
8) Add the labeled cells to each well according to the plate map, 10000 cells/10 uL/well. Centrifuge the plate at 1000 rpm for 1 min.
9) Incubate the plate at 23° C., 30 min.
10) Add 50 nL of red agonist (final conc.: 4.917 nM) to destination plate using Echo.
11) Incubate the plate at 23° C. for 2 h.
12) Read the plate on an HTRF® compatible reader (at 665 nm and 620 nm).
% Inhibition=100%−(Ratio−LC)/(HC−LC)*100%
HC: The average ratio of adding DMSO wells
LC: The average ratio of adding the top concentration of reference compounds wells
b) The “log (inhibitor) vs. response—Variable slope” model in GraphPad Prism 5.0 was used to fit the dose-response curve of each sample. The sample concentration (x) and its corresponding % Inhibition data (y) were substituted into the model. The sample concentration (abscissa) was x=log(x) transformed. The transformed xy was used as the sample curve to obtain the IC50.
c) Calculate the sample Ki according to the sample IC50 and red agonist Kd. S in the formula is the actual used concentration of red agonist.

T1 sequence (P43220 24-463): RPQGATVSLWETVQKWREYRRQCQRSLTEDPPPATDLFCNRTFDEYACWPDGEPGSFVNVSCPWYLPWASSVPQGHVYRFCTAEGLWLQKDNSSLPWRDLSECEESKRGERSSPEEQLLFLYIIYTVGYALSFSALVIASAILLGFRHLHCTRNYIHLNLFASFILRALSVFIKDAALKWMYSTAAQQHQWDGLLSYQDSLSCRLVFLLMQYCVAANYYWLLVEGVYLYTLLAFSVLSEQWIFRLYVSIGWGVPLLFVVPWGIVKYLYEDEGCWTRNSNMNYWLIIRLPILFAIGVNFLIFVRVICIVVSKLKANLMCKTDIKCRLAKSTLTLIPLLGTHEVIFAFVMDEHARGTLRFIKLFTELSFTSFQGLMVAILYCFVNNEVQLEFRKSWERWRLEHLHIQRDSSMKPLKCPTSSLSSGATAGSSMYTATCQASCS

Structure (SMILES) | EC50 (GLP-1R [1]) | IC50 (GLP-1R [2]) | Ki (GLP-1R [2])
CCn1cncc1Cn1c(Cc2c(F)cc(-c3cccc4c3OC(C)(c3ccc(Cl)cn3)O4)cc2F)nc2cc(NC(=O)c3cc(F)c4[nH]nc(C)c4c3)ccc21 (stereo not drawn) [Compound 409] | 0.42 nM | 486 nM | 237 nM
O=C(Nc1cc(F)c2c(c1)C1(CC1)C(=O)N2)c1ccc2c(c1)nc(CN1CC=C(c3cccc(OCc4ccc(Cl)cc4F)n3)CC1)n2C[C@@H]1CCO1 [Compound 154] | 0.45 nM | 1580 nM | 904 nM
Cc1n[nH]c2ccc(C(=O)Nc3ccc4c(c3)nc(CN3CC=C(c5cccc(OCc6ccc(Cl)cn6)n5)CC3)n4C[C@@H]3CCO3)cc12 [Compound 391] | 0.91 nM | 116 nM | 70.3 nM
O=C(Nc1ccc2[nH]c(=O)[nH]c2c1)c1ccc2c(c1)nc(CN1CCC(c3cccc(OCc4ccc(Cl)cc4F)n3)CC1)n2C[C@@H]1CCO1 [Compound 90] | 1.59 nM | 1900 nM | 950 nM
Cc1n[nH]c2c(C)cc(C(=O)Nc3ccc4c(c3)nc(C3CC35CCN(c3cccc(OCc6ccc(Cl)cc6F)n3)CC5)n4CC3CCO3)cc12 (stereo not drawn) [Compound 245] | 0.51 nM | 146 nM | 82.3 nM
O=C(Nc1ccc2c(c1)C1(CC1)C(=O)N2)c1ccc2c(c1)nc(CN1CCC(c3cccc(OCc4ccc(Cl)cn4)n3)CC1)n2C[C@@H]1CCO1 [Compound 101] | 0.75 nM | 1280 nM | 641 nM
Cc1n[nH]c2c(F)cc(NC(=O)c3ccc4c(c3)nc(CN3CCC(c5cccc(OCc6ccc(Cl)cc6F)n5)CC3)n4C[C@@H]3CCO3)cc12 [Compound 103] | 0.83 nM | 1550 nM | 885 nM
Cc1n[nH]c2ccc(NC(=O)c3ccc4c(c3)nc(CN3CC=C(c5cccc6c5O[C@@](C)(c5ccc(Cl)cc5F)O6)CC3)n4C[C@@H]3CCO3)cc12 [Compound 5, 2-((4-((S)-2-(4-chloro-2-fluorophenyl)-2-methylbenzo[d][1,3]dioxol-4-yl)-3,6-dihydropyridin-1(2H)-yl)methyl)-N-(3-methyl-1H-indazol-5-yl)-1-(((S)-oxetan-2-yl)methyl)-1H-benzo[d]imidazole-5-carboxamide] | 0.12 nM | 1700 nM | 911 nM
O=C(Nc1ccc2[nH]c(=O)[nH]c2c1)c1ccc2c(c1)nc(CN1CC=C(c3cccc(OCc4ccc(Cl)cc4F)n3)CC1)n2C[C@@H]1CCO1 [Compound 147] | 0.68 nM | 1750 nM | 841 nM
Cc1n[nH]c2c(C)cc(C(=O)Nc3ccc4c(c3)nc(CN3CC=C(c5cccc(OCc6ccc(Cl)cc6F)n5)CC3)n4C[C@@H]3CCO3)cc12 [Compound 197] | 0.19 nM | 165 nM | 84 nM
Cc1n[nH]c2c(C)cc(C(=O)Nc3ccc4c(c3)nc(CN3CC=C(c5cccc6c5O[C@](C)(c5ccc(Cl)cc5F)O6)CC3)n4CC3CCO3)cc12 (stereo partly drawn) [Compound 385] | 0.61 nM | 158 nM | 82.7 nM
Cc1n[nH]c2c(F)cc(C(=O)Nc3ccc4c(c3)nc(Cc3c(F)cc(-c5cccc6c5O[C@@](C)(c5ccc(Cl)cn5)O6)cc3F)n4CC3CCO3)cc12 (stereo partly drawn) [Compound 386] | 0.15 nM | 120 nM | 69.9 nM
Cc1n[nH]c2ccc(NC(=O)c3ccc4c(c3)nc(CN3CC=C(c5cccc(OCc6ccc(Cl)cn6)n5)CC3)n4C[C@@H]3CCO3)cc12 [Compound 145] | 0.45 nM | 1920 nM | 956 nM
Cc1n[nH]c2c(C)cc(NC(=O)c3ccc4nc(CN5CC=C(c6cccc(OCc7ccc(C#N)cc7F)n6)CC5)n(CC5CCO5)c4c3)cc12 (stereo not drawn) [Compound 276] | 0.65 nM | 2460 nM | 1010 nM
Cc1n[nH]c2c(C)cc(NC(=O)c3ccc4c(c3)nc(CN3CC=C(c5cccc6c5O[C@](C)(c5ccc(Cl)cn5)O6)CC3)n4CC3CCO3)cc12 (stereo partly drawn) [Compound 383] | 1.92 nM | 1480 nM | 899 nM
Cc1n[nH]c2c(F)cc(C(=O)Nc3ccc4c(c3)nc(Cc3cc(F)c(-c5cccc(OCc6ccc(Cl)cc6F)n5)cc3F)n4C3COC[C@H]3O)cc12 (stereo partly drawn) [Compound 417] | 0.65 nM | 137 nM | 69.2 nM
Cc1n[nH]c2c(F)cc(C(=O)Nc3ccc4c(c3)nc(CN3CCC(c5cccc6c5OC(C)(c5ccc(Cl)cc5F)O6)CC3)n4CC3CCO3)cc12 (stereo not drawn) [Compound 340] | 0.28 nM | 123 nM | 88.5 nM
CCn1cncc1Cn1c(Cc2cc(F)c(-c3cccc(OCc4ccc(Cl)cc4F)n3)cc2F)nc2cc(NC(=O)c3cc(F)c4[nH]nc(C)c4c3)ccc21 [Compound 414] | 0.57 nM | 31.7 nM | 15.6 nM
O=C(Nc1ccc2[nH]nnc2c1)c1ccc2c(c1)nc(CN1CC=C(c3cccc(OCc4ccc(Cl)cc4F)n3)CC1)n2C[C@@H]1CCO1 [Compound 166] | 0.76 nM | 2650 nM | 1320 nM
Cc1n[nH]c2c(F)cc(C(=O)Nc3ccc4c(c3)nc(Cc3cc(F)c(-c5cccc(OCc6ccc(Cl)cc6F)n5)cc3F)n4C[C@@H]3CCO3)cc12 [Compound 413] | 0.49 nM | 28 nM | 14.1 nM
Cc1n[nH]c2c(C)cc(C(=O)Nc3ccc4c(c3)nc(CN3CC=C(c5cccc(OCc6ccc(C#N)cc6F)n5)CC3)n4C[C@@H]3CCO3)cc12 [Compound 229] | 0.21 nM | 122 nM | 75.9 nM
Cc1n[nH]c2c(C)cc(NC(=O)c3ccc4c(c3)nc(CN3CCC(c5cccc6c5OC(C)(c5ccc(C#N)cc5F)O6)CC3)n4CC3CCO3)cc12 (stereo not drawn) [Compound 335] | 0.97 nM | 1110 nM | 615 nM
O=C(Nc1ccc2c(c1)nc(CN1CCC(c3cccc(OCc4ccc(Cl)cc4F)n3)CC1)n2C[C@@H]1CCO1)c1ccc2[nH]c(=O)[nH]c2c1 [Compound 85] | 0.41 nM | 143 nM | 71.7 nM
Cc1n[nH]c2ccc(C(=O)Nc3ccc4c(c3)nc(CN3CCC(c5cccc6c5OC(C)(c5ccc(Cl)cc5F)O6)CC3)n4CC3CCO3)cc12 (stereo not drawn) [Compound 342] | 0.91 nM | 140 nM | 72.2 nM
CCn1cncc1Cn1c(Cc2c(F)cc(-c3cccc(OCc4ccc(Cl)cc4F)n3)cc2F)nc2cc(NC(=O)c3cc(F)c4[nH]nc(C)c4c3)ccc21 [Compound 415] | 0.71 nM | 233 nM | 117 nM
Cc1n[nH]c2ccc(NC(=O)c3ccc4c(c3)nc(CN3CC=C(c5cccc(OCc6ccc(Cl)cc6F)n5)CC3)n4C[C@@H]3CCO3)cc12 [Compound 3, (S)-2-((6-((4-chloro-2-fluorobenzyl)oxy)-3′,6′-dihydro-[2,4′-bipyridin]-1′(2′H)-yl)methyl)-N-(3-methyl-1H-indazol-5-yl)-1-(oxetan-2-ylmethyl)-1H-benzo[d]imidazole-5-carboxamide] | 0.56 nM | 1750 nM | 876 nM
Cc1n[nH]c2c(C)cc(NC(=O)c3ccc4c(c3)nc(CN3CC=C(c5cccc6c5O[C@@](C)(c5ccc(Cl)cn5)O6)CC3)n4CC3CCO3)cc12 (stereo partly drawn) [Compound 382] | 0.1 nM | 689 nM | 342 nM
